Legend:
Test in all cases: relative viability (nuclei count vs DMSO), 5 days (fraction); higher = more cells survive
A549 = test system: A549
Summary of the method: (§1)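 Cells from lung cancer lines were seeded into 1536-well plates and, one day later, dosed by pin tool. Treatments were either a single drug or a fixed dose of an anchor drug with five library-drug doses (not always all listed) in √10 steps. After 5 days, nuclei were stained in a one-step fixation (final 0.05% Triton X-100, 1% formaldehyde, 1 ug/ml Hoechst) and counted on 4× images, and relative viability is the treated-to-vehicle nuclei ratio, as the median of duplicate plates.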

CAL-12T = test system: CAL-12T
Summary of the method: as §1

LK-2 = test system: LK-2
Summary of the method: as §1

NCI-H1623 = test system: NCI-H1623
Summary of the method: as §1

NCI-H1650 = test system: NCI-H1650
Summary of the method: as §1

NCI-H522 = test system: NCI-H522
Summary of the method: as §1

In the case of `CC1(C)CCC(c2ccc(Cl)cc2)=C(CN2CCN(c3ccc(C(=O)NS(=O)(=O)c4ccc(N[C@H](CCN5CCOCC5)CSc5ccccc5)c(S(=O)(=O)C(F)(F)F)c4)cc3)CC2)C1` [Navitoclax] + N=C(N)NC(=N)NCCc1ccccc1 [Phenformin] (partner 250 µM), the relative viability (A549; first compound 0.005 µM) is reported as 0.146, the relative viability (A549; first compound 0.01581 µM) is reported as 0.19 and the relative viability (A549; first compound 0.05 µM) is reported as 0.144. The relative viability (A549; first compound 0.1581 µM) was 0.157, the relative viability (A549; first compound 0.5 µM) was 0.146 and the relative viability (CAL-12T; first compound 0.005 µM) was 0.527. The relative viability (CAL-12T; first compound 0.01581 µM) was 0.655, the relative viability (CAL-12T; first compound 0.05 µM) was 0.6 and the relative viability (CAL-12T; first compound 0.1581 µM) was 0.503. For the same molecule, the relative viability (CAL-12T; first compound 0.5 µM) was 0.582, the relative viability (LK-2; first compound 0.005 µM) was 0.417 and the relative viability (LK-2; first compound 0.01581 µM) was 0.551. For the same molecule, the relative viability (LK-2; first compound 0.05 µM) was 0.379, the relative viability (LK-2; first compound 0.1581 µM) was 0.353 and the relative viability (LK-2; first compound 0.5 µM) was 0.395. The relative viability (NCI-H1623; first compound 0.005 µM) was 0.624, the relative viability (NCI-H1623; first compound 0.01581 µM) was 0.671 and the relative viability (NCI-H1623; first compound 0.05 µM) was 0.58. It also gave a relative viability (NCI-H1623; first compound 0.1581 µM) of 0.567, a relative viability (NCI-H1623; first compound 0.5 µM) of 0.555 and a relative viability (NCI-H1650; first compound 0.005 µM) of 0.358. It also gave a relative viability (NCI-H1650; first compound 0.01581 µM) of 0.606, a relative viability (NCI-H1650; first compound 0.05 µM) of 0.404 and a relative viability (NCI-H1650; first compound 0.1581 µM) of 0.36. For the same molecule, the relative viability (NCI-H1650; first compound 0.5 µM) was 0.313, the relative viability (NCI-H522; first compound 0.005 µM) was 0.633 and the relative viability (NCI-H522; first compound 0.01581 µM) was 0.603. For the same molecule, the relative viability (NCI-H522; first compound 0.05 µM) was 0.701, the relative viability (NCI-H522; first compound 0.1581 µM) was 0.695 and the relative viability (NCI-H522; first compound 0.5 µM) was 0.699.

In the case of `NC(=O)Nc1cc(-c2cccc(F)c2)sc1C(=O)N[C@H]1CCCNC1` [AZD7762] + N=C(N)NC(=N)NCCc1ccccc1 [Phenformin] (partner 250 µM), the relative viability (A549; first compound 0.01 µM) is reported as 0.167, the relative viability (A549; first compound 0.03162 µM) is reported as 0.183 and the relative viability (A549; first compound 0.1 µM) is reported as 0.187. It also gave a relative viability (A549; first compound 0.3162 µM) of 0.188, a relative viability (A549; first compound 1 µM) of 0.184 and a relative viability (CAL-12T; first compound 0.01 µM) of 0.605. The relative viability (CAL-12T; first compound 0.03162 µM) was 0.559, the relative viability (CAL-12T; first compound 0.1 µM) was 0.571 and the relative viability (CAL-12T; first compound 0.3162 µM) was 0.321. It also gave a relative viability (CAL-12T; first compound 1 µM) of 0.114, a relative viability (LK-2; first compound 0.01 µM) of 0.396 and a relative viability (LK-2; first compound 0.03162 µM) of 0.75. It also gave a relative viability (LK-2; first compound 0.1 µM) of 0.384, a relative viability (LK-2; first compound 0.3162 µM) of 0.45 and a relative viability (LK-2; first compound 1 µM) of 0.31. The relative viability (NCI-H1623; first compound 0.01 µM) was 0.557, the relative viability (NCI-H1623; first compound 0.03162 µM) was 0.606 and the relative viability (NCI-H1623; first compound 0.1 µM) was 0.594. It also gave a relative viability (NCI-H1623; first compound 0.3162 µM) of 0.632, a relative viability (NCI-H1623; first compound 1 µM) of 0.497 and a relative viability (NCI-H1650; first compound 0.01 µM) of 0.51. It also gave a relative viability (NCI-H1650; first compound 0.03162 µM) of 0.48, a relative viability (NCI-H1650; first compound 0.1 µM) of 0.439 and a relative viability (NCI-H1650; first compound 0.3162 µM) of 0.252. It also gave a relative viability (NCI-H1650; first compound 1 µM) of 0.18, a relative viability (NCI-H522; first compound 0.01 µM) of 0.668 and a relative viability (NCI-H522; first compound 0.03162 µM) of 0.711. It also gave a relative viability (NCI-H522; first compound 0.1 µM) of 0.635, a relative viability (NCI-H522; first compound 0.3162 µM) of 0.752 and a relative viability (NCI-H522; first compound 1 µM) of 0.597.

For `Oc1nc(-c2ccc(C(F)(F)F)cc2)nc2c1CSCC2` [XAV939] + N=C(N)NC(=N)NCCc1ccccc1 [Phenformin] (partner 250 µM), the relative viability (A549; first compound 0.08 µM) was 0.136, the relative viability (A549; first compound 0.253 µM) was 0.218 and the relative viability (A549; first compound 0.8 µM) was 0.129. It also gave a relative viability (A549; first compound 2.53 µM) of 0.175, a relative viability (CAL-12T; first compound 0.08 µM) of 0.592 and a relative viability (CAL-12T; first compound 0.253 µM) of 0.507. It also gave a relative viability (CAL-12T; first compound 0.8 µM) of 0.46, a relative viability (CAL-12T; first compound 2.53 µM) of 0.417 and a relative viability (LK-2; first compound 0.08 µM) of 0.458. For the same molecule, the relative viability (LK-2; first compound 0.253 µM) was 0.527, the relative viability (LK-2; first compound 0.8 µM) was 0.484 and the relative viability (LK-2; first compound 2.53 µM) was 0.369. For the same molecule, the relative viability (NCI-H1623; first compound 0.08 µM) was 0.578, the relative viability (NCI-H1623; first compound 0.253 µM) was 0.555 and the relative viability (NCI-H1623; first compound 0.8 µM) was 0.59. For the same molecule, the relative viability (NCI-H1623; first compound 2.53 µM) was 0.591, the relative viability (NCI-H1650; first compound 0.08 µM) was 0.499 and the relative viability (NCI-H1650; first compound 0.253 µM) was 0.456. For the same molecule, the relative viability (NCI-H1650; first compound 0.8 µM) was 0.373, the relative viability (NCI-H1650; first compound 2.53 µM) was 0.348 and the relative viability (NCI-H522; first compound 0.08 µM) was 0.599. For the same molecule, the relative viability (NCI-H522; first compound 0.253 µM) was 0.707, the relative viability (NCI-H522; first compound 0.8 µM) was 0.594 and the relative viability (NCI-H522; first compound 2.53 µM) was 0.599.

`CC1(C)CCC(c2ccc(Cl)cc2)=C(CN2CCN(c3ccc(C(=O)NS(=O)(=O)c4ccc(N[C@H](CCN5CCOCC5)CSc5ccccc5)c(S(=O)(=O)C(F)(F)F)c4)cc3)CC2)C1` [Navitoclax] + Cc1nc(Nc2ncc(C(=O)Nc3c(C)cccc3Cl)s2)cc(N2CCN(CCO)CC2)n1 [Dasatinib] (partner 0.075 µM) showed a relative viability (CAL-12T; first compound 0.005 µM) of 0.433, a relative viability (CAL-12T; first compound 0.01581 µM) of 0.6 and a relative viability (CAL-12T; first compound 0.05 µM) of 0.325. The relative viability (CAL-12T; first compound 0.1581 µM) was 0.492, the relative viability (CAL-12T; first compound 0.5 µM) was 0.506 and the relative viability (LK-2; first compound 0.005 µM) was 0.319. The relative viability (LK-2; first compound 0.01581 µM) was 0.368, the relative viability (LK-2; first compound 0.05 µM) was 0.309 and the relative viability (LK-2; first compound 0.1581 µM) was 0.202. For the same molecule, the relative viability (LK-2; first compound 0.5 µM) was 0.37, the relative viability (NCI-H1623; first compound 0.005 µM) was 0.546 and the relative viability (NCI-H1623; first compound 0.01581 µM) was 0.578. It also gave a relative viability (NCI-H1623; first compound 0.05 µM) of 0.518, a relative viability (NCI-H1623; first compound 0.1581 µM) of 0.539 and a relative viability (NCI-H1623; first compound 0.5 µM) of 0.618. It also gave a relative viability (NCI-H1650; first compound 0.005 µM) of 0.28, a relative viability (NCI-H1650; first compound 0.01581 µM) of 0.38 and a relative viability (NCI-H1650; first compound 0.05 µM) of 0.314. For the same molecule, the relative viability (NCI-H1650; first compound 0.1581 µM) was 0.277, the relative viability (NCI-H1650; first compound 0.5 µM) was 0.219 and the relative viability (NCI-H522; first compound 0.005 µM) was 0.685. For the same molecule, the relative viability (NCI-H522; first compound 0.01581 µM) was 1.02, the relative viability (NCI-H522; first compound 0.05 µM) was 1.17 and the relative viability (NCI-H522; first compound 0.1581 µM) was 1.06. For the same molecule, the relative viability (NCI-H522; first compound 0.5 µM) was 0.816.

Reference: the supplement of paper PMC10307832
